Laboratory results from patent publication US8535897B2, “Assays for non-apoptotic cell death and uses thereof” (The Trustees of Columbia University in the City of New York, priority 2006, dated 2013).
Structures can show the parent of a compound that is named as a salt.

Legend:
VDAC1, VDAC2 and VDAC3 = test: VDAC chemi-proteomic identification (pull-down on immobilized erastin analogs); assay type: binding, human; settings: BJ-TERT/LT/ST/RAS^V12 cell lysates
Text: Erastin A6, Erastin A3, and erastin B2 were immobilized on solid-phase resins, and proteins that interact with A3 or A6, but not B2 were identified. […] In certain embodiments, wherein BJ-TERT cell lysates were used, a small amount of VDAC1 on the A3 and A6 resins was identified, but none of the VDACs were bound on the B2 resin. Thus, it appears that erastin A3 and A6 more efficiently isolate VDAC2 and VDAC3 compared to erastin B2.
Cultures of BJ-TERT and BJ-TERT/LT/ST/RAS^V12 cells (ten 150 mm plates) were washed with PBS, lysed in 25 mM hydroxyethylpiperazine-N′-2-ethanesulfonic acid (HEPES) pH 7.5, 150 mM NaCl, 1% NP-40, 10 mM MgCl2, 1 mM ethylene-diamine tetra acetate (EDTA), 10% glycerol, 1 mM dithiothreitol (DTT) and protease inhibitor cocktail. Protein concentration was determined using a Bradford colorimetric assay.
Erastin A3 and B2 were dissolved in DMSO at 10 mg/ml. 100 μL of AffiGel-10 was washed and resuspended in 400 μl DMSO. 10 μL of compound and 3 μL of 1:100 dilution of triethylamine in DMSO were added. […] Samples were analyzed using both a 4700 Proteomics Analyzer MALDI-TOF/TOF (TOF/TOF; Applied Biosystems) and a Q Trap (AB/MDS Sciez) and the peptide level data were combined. […]

BJ-TERT/LT/ST/RASV12 = test: Alamar blue viability assay, engineered tumor cells; assay type: cell-based, human; settings: for selective lethality / activity in cells: BJ-TERT/LT/ST/RAS^V12 cells vs BJ-TERT cells
Procedure: Erastin was tested in a dilution series in five engineered cell lines derived from primary BJ fibroblasts. Cells were incubated with erastin for two days at 37° C. with 5% CO2, Alamar blue was added (10% final volume) and fluorescence measured (530 nm ex, 590 nm em). Cell lines harboring oncogenic RAS (triangles, circles and x's) were sensitive to erastin, but isogenic lines lacking oncogenic RAS (squares and diamonds) were resistant. Two different clones of engineered tumor cells (circles and triangles) responded similarly.
(a) BJ-TERT/LT/ST/RAS^V12 cells were treated with 9 μM erastin A1 for the indicated length of time, and the number of viable cells determined. (b) 1,000 BJ-TERT/LT/ST/RAS^V12 cells/well in 384-well plates were treated with erastin for 2 d, then alamar blue was added to a final concentration of 10% and the plates were incubated for 16 h. Red fluorescence resulting from reduction of alamar blue was detected on a Victor3 platereader. The percent growth inhibition is shown; error bars represent one SD. […] (c) TEM images (20,000× magnification) of BJ-TERT/LT/ST/RAS^V12 mitochondria after cells were treated with nothing, erastin (37 μM for 10 h) or staurosporine (STS, 1 μM for 5 h), and phase-contrast photograph of BJ-TERT/LT/ST/RAS^V12 cells 24 h after 9 μM erastin A1 treatment is also shown to indicate that even after cell death, nuclei are intact. (d) Anti-oxidants suppress erastin-induced death. BJ-TERT/LT/ST/RAS^V12 cells were treated as indicated and photographed. (e) The number of viable cells was quantified under each condition using a hemacytometer. (f) Iron chelators suppress erastin-induced cell death. Cells were seeded in 384-well plates (6,000 cells/well) and treated with 2-fold dilution series of erastin in the presence of 100 μM desferrioxamine mesylate (DFOM), 100 μM of iron chelator 1a, 100 μM of iron chelator 2, 10 μM or 1 μM of iron chelator 311. After 24 h, alamar blue was added and cell viability assayed. (g, h) Erastin-induced formation of oxidative species. BJ-TERT/LT/ST/RAS^V12 (shown in histogram plots, and in line graph as dark diamonds) or BJ-TERT cells (shown in line graph only, light circles) were treated with 4.6-μM erastin A1 and the level of intracellular oxidative species determined. (i, j) STS, but not erastin, induces PARP1 cleavage (red bands at top) in BJ-TERT/LT/ST/RAS^V12 cells and in A673, HT1080 and HeLa cells. NS: non-specific band. […] Cells were treated with STS or erastin, separated into mitochondrial and cytosolic fractions, and probed for cytochrome c (lower red band) and total VDAC (middle green band, pan-VDAC antibody). (1) Caspase-3 is not cleaved in response to erastin. Cells were treated as indicated and probed with an anti-caspase-3 antibody that recognizes both the full length and the cleaved, active form (lower band). […] ATP levels were measured, viable cells determined by Trypan Blue exclusion and ATP per viable cell determined. Abbreviations: DMSO, dimethylsulfoxide; BHT, butylated hydroxytoluene; TOC, alpha-tocopherol; ERA, erastin A1; CAR, beta-carotene; STS, staurosprine.
(a) Calu-1 lung carcinoma cells harboring oncogenic KRAS were infected with lentivirus containing shRNAs targeting KRAS or GFP. Sequences of shRNAs are indicated by starting nucleotide (nt) in the KRAS mRNA coding sequence. Cells were treated with erastin and viability measured by Trypan Blue exclusion. (b) Knockdown of KRAS was confirmed by western blot. (c,d) A673 cells harboring oncogenic BRAF were infected with lentiviral shRNAs targeting BRAF exon 5 (c) or the 5′ UTR (d), luciferase (LUC)(c) or GFP (d). Cells were treated with erastin and viability measured using Alamar Blue (c) and Trypan Blue (d). (e) Knockdown of BRAF was confirmed by western blot. […] BJ-TERT/LT/ST/RAS^V12 cells were treated with erastin alone or in with a MEK inhibitor U0126 (20 μM), MEK inhibitor I (10 μM) or MEK 1/2 inhibitor (50 μM). After 48 h, viability was determined using Trypan Blue. […]

[1] = test system: BJ-TERT/LT/ST/RAS^V12 cells; test: Cell death, viable cells counted using a hemacytometer; assay type: cell-based, human; settings: 13 μM erastin Al, 23 μM antimycin, 126 μM 2-ME or the combinations
BJELR cells = test: Sensitivity after upregulation of VDACs by nucleofection; assay type: cell-based, human
Text: Quantitative western blot showing the ratio of VDACs (top band, green) to eif4E (bottom band, red) (e). […] Green, untransfected BJELR cells; blue, mock nucleofected BJELR cells; red, VDAC2/3-nucleofected BJELR cells (f).
In certain aspects, the invention provides that erastin acts by a gain-of-function mechanism and that cells with more VDAC proteins are more sensitive to erastin. A gain-of-function mechanism operates in cells which have increased levels of topoisomerase I and are thus more sensitive to camptothecin^149. […] In other embodiments, cell lines can be stably transfected with vectors expressing VDAC1, 2, and/or 3. Thus, increased VDAC expression leads to erastin sensitivity which is consistent with a gain of function mechanism. Furthermore, a knockdown of VDACs causes erastin resistance.

[2] = test system: BJ-TERT/LT/ST/RAS^V12 cells; test: Suppression of erastin lethality by MEK inhibitors (Trypan Blue); assay type: cell-based, human; settings: U0126 20 μM, MEK inhibitor I 10 μM, MEK 1/2 inhibitor 50 μM, 48 h
Procedure: BJ-TERT/LT/ST/RASV12 engineered tumor cells were treated with the indicated concentrations of erastin and each MEK1/2 inhibitor for 24 hours and viability was determined by Trypan Blue exclusion.
Cells grown in 175 cm^2 flasks were reseeded in 6-well format (1.4×10^5 cells/well) and treated with erastin dilutions (5-fold, from 36 uM to 60 nM, with no-drug control, n=2) in the presence of one of the MEK inhibitors U0126 (20 uM), MEK inhibitor I (10 uM), MEK 1/2 inhibitor (50 uM), PD98059 (50 uM), MEK inhibitor II (30 uM), or in the absence of inhibitor. After 48 hours, cells were trypsinized and counted using a Vi-CELL™ Series Cell Viability Analyzer. […] Non-linear regression was used to fit curves to the data points using GraphPad Prism™ software. The bottom of each curve was set to zero.

[3] = test system: BJ-TERT/LT/ST/RAS^V12 cells; test: Suppression of erastin lethality by iron chelators (Alamar Blue); assay type: cell-based, human; settings: 100 μM DFOM, 100 μM 1a, 100 μM 2, 10 μM or 1 μM 311, 24 h
Procedure: BJ-TERT/LT/ST/RAS^V12 cells were treated with erastin and four different iron chelators, desferrioxamine mesylate (DFOM), the compounds 1a and 2 whose structures are shown in FIG. 30, and the compound “311” (311-10 or 311-1) (Green, D. A, et al., Inhibition of Malignant Cell Growth by 311, a novel iron chelator of the pyridoxal isonicotinoyl hydrazone class: Effect on the R2 subunit of ribonucleotide reductase. Clinical Cancer Research, (7): 3574-3579 (2001). Cell killing was measured by Alamar Blue assay.
(a) BJ-TERT/LT/ST/RAS^V12 cells were treated with 9 μM erastin A1 for the indicated length of time, and the number of viable cells determined. (b) 1,000 BJ-TERT/LT/ST/RAS^V12 cells/well in 384-well plates were treated with erastin for 2 d, then alamar blue was added to a final concentration of 10% and the plates were incubated for 16 h. Red fluorescence resulting from reduction of alamar blue was detected on a Victor3 platereader. […] (e) The number of viable cells was quantified under each condition using a hemacytometer. […] BJ-TERT/LT/ST/RAS^V12 (shown in histogram plots, and in line graph as dark diamonds) or BJ-TERT cells (shown in line graph only, light circles) were treated with 4.6-μM erastin A1 and the level of intracellular oxidative species determined. […] ATP levels were measured, viable cells determined by Trypan Blue exclusion and ATP per viable cell determined. […]

## CC(C)NC(=O)N(CCN1CCN(C(=O)COc2ccc(Cl)cc2)CC1)Cc1ccc(CN)cc1 [erastin B2]
VDAC1, VDAC2 and VDAC3
  VDAC isoforms identified on the immobilized analog resin: only VDAC1
BJ-TERT/LT/ST/RASV12
  selective lethality / activity in cells: lacks activity
BJ-TERT/LT/ST/RASV12; BJELR cells
  lethality (no lethality up to): > 50 µM

## antimycin
[1]
  Cell death (%): 51%

## COc1cc2c(cc1O)CC[C@@H]1[C@@H]2CC[C@]2(C)[C@@H](O)CC[C@@H]12 [2-ME, 2-methoxyestradiol]
[1]
  Cell death (%): 66%

## CCOc1ccccc1-n1c(C(C)N2CCN(C(C)=O)CC2)nc2ccccc2c1=O (stereo not drawn) [erastin A8]
BJ-TERT/LT/ST/RASV12
  selective lethality / activity in cells: inactive

## CCOc1ccccc1-n1c(C(C)N2CCN(C(=O)COc3ccc(CN)cc3)CC2)nc2ccccc2c1=O (stereo not drawn) [erastin A3]
VDAC1, VDAC2 and VDAC3
  VDAC isoforms identified on the immobilized analog resin: all three isoforms of the human mitochondrial voltage-dependent anion channels (VDAC1, VDAC2 and VDAC3) were identified
BJ-TERT/LT/ST/RASV12
  selective lethality / activity in cells: retained the ability to kill BJ-TERT/LT/ST/RAS^V12 cells but not BJ-TERT cells

## COc1cc([C@@H]2c3cc4c(cc3[C@H](O)[C@H]3COC(=O)[C@H]23)OCO4)cc(OC)c1OC [podophyllotoxin]
BJELR cells
  change in sensitivity/potency after upregulation of VDAC proteins by nucleofection: did not change the potency

## N#CC(=C(N)Sc1ccc(N)cc1)c1ccccc1C(F)(F)F [MEK 1/2 inhibitor]
[2]
  effect of MEK inhibitor on erastin lethality: prevent erastin lethality

## CCOc1ccccc1-n1c(C(C)N2CCN(C(=O)COc3ccc(Cl)cc3)CC2)nc2cc(NC(C)=O)ccc2c1=O (stereo not drawn) [erastin A9]
BJ-TERT/LT/ST/RASV12; BJELR (BJ-TERT/LT/ST/RAS^V12) cells
  IC50: 1.9 µM

## N#CC(=C(/N)Sc1ccccc1N)/C(C#N)=C(\N)Sc1ccccc1N [U0126]
[2]
  effect of MEK inhibitor on erastin lethality: prevent erastin lethality

## CC(=O)N(O)CCCCCNC(=O)CCC(=O)N(O)CCCCCNC(=O)CCC(=O)N(O)CCCCCN [desferrioxamine mesylate]
[3]
  effect of iron chelator on erastin lethality: suppress erastin lethality

## O=C(N/N=C/c1c(O)ccc2ccccc12)c1ccncc1 [compound 311]
[3]
  effect of iron chelator on erastin lethality: suppress erastin lethality

## N#C/C(=C(/N)Sc1ccccc1N)c1cccc(C(O)c2ccncc2)c1 (stereo not drawn) [MEK inhibitor I]
[2]
  effect of MEK inhibitor on erastin lethality: prevent erastin lethality

## CC(C)NC(=O)N(CCN1CCN(C(=O)COc2ccc(Cl)cc2)CC1)Cc1ccc(F)cc1 [erastin B1]
BJ-TERT/LT/ST/RASV12
  selective lethality / activity in cells: inactive

## CCOc1ccccc1-n1c(C(C)N2CCN(C(=O)COc3ccc(CN)cc3)CC2)nc2ccccc2c1=O (stereo not drawn) [erastin A6]
VDAC1, VDAC2 and VDAC3
  VDAC isoforms identified on the immobilized analog resin: all three isoforms of the human mitochondrial voltage-dependent anion channels (VDAC1, VDAC2 and VDAC3) were identified
BJ-TERT/LT/ST/RASV12; listed as ERA-A6
  selective lethality / activity in cells: selectively lethal to RASV12-expressing cells
